From patent US8585965B2, “Sterilization of polymeric materials” (priority 2006, dated 2013)

Key:
Format in all cases: cell-based
[1] = test system: Enterococcus faecalis ATCC 29212; assay: Radiosensitization of bacteria coated onto a material surface (sterile 12 mm paper disks), gamma irradiation, cfu by dilution plating; conditions: for enhancement of the killing efficiency of the irradiation / cfu recovered, 0.3 kGy: 0.3 kGy; for enhancement of the killing efficiency of the irradiation: paper disks; for Post-Treatment CFU Added: 2 hours at room temperature; for cfu recovered, 0.3 kGy / cfu recovered, 0 kGy: paper disk; for cfu recovered, 0 kGy: not irradiated
Method: Enterococcus faecalis ATCC 29212, grown overnight in tryptic soy broth at 37° C. without shaking, were centrifuged and resuspended in 2% glucose at a concentration of about 5×10^7 cfu/ml. […] The cfu contained in each sample were quantified by dilution plating and the values are listed as “post-treatment cfu added.” None of the radiosensitizer treatments alone appeared to have a significant adverse effect on the bacteria.
Following radiosensitizer treatment, 0.05 ml of each mixture (containing approximately 1×10^6 cfu) was spotted onto sterile 12 mm paper disks and the disks air dried for 30 minutes. The disks were then placed in sterile tubes and left untreated or irradiated with 0.3 kGy. The cfu were recovered from the disks by vortexing with glass beads for 1 minute in 0.85% saline with 0.35 g/l lecithin and 2.5 ml/l Tween 80. Quantification of the cfu was then performed by dilution plating onto tryptic soy agar.

[2] = test system: Enterococcus faecalis ATCC 29212; assay: Radiosensitization of bacteria coated onto Vicryl mesh (Example 2), irradiation 0.1 or 0.2 kGy; set-up: Inoculum: dose or concentration left out as unconfirmed
Method: (§1) Enterococcus faecalis ATCC 29212, grown overnight in tryptic soy broth at 37° C. without shaking, were centrifuged and resuspended in phosphate buffered saline (PBS) at a concentration of roughly 2×10^9 cfu/ml. […] The cfu contained in each sample after this incubation were quantified by dilution plating.
(§2) Following radiosensitizer treatment, 0.01 ml of each mixture (containing approximately 2×10^7 cfu) was spotted onto nine 1 cm×1 cm squares of Vicryl® mesh that were then air dried for 60 minutes. Triplicate samples were then placed in sterile tubes and left untreated or irradiated with 0.1 or 0.2 kGy. The cfu were recovered from the meshes by vortexing with glass beads for 1 minute in 0.85% saline with 0.35 g/l lecithin and 2.5 ml/l Tween 80. Quantification of the cfu was then performed by dilution plating onto tryptic soy agar.

[3] = test system: Enterococcus faecalis ATCC 29212; assay: Radiosensitization of bacteria coated onto Prolene mesh (Example 3)
Method: as §1, with “about 5×10^8” for “roughly 2×10^9”
as §2, with “5×10^8” for “2×10^7”, “Prolene®” for “Vicryl®”, “0.3” for “0.2”, “mesh” for “meshes”

[4] = test system: Enterococcus faecalis ATCC 29212; assay: Radiosensitization of bacteria coated onto Vicryl mesh (Example 3); conditions: for Avg CFU Recovered / Log Red v 0 kGy / Log Red v Control / Log Red v Inoculum: 50 μg/ml, Vicryl
Method: as §1, with “about 5×10^8” for “roughly 2×10^9”
as §2, with “5×10^8” for “2×10^7”, “0.3” for “0.2”, “mesh” for “meshes”

[5] = test system: Enterococcus faecalis ATCC 29212; assay: Radiosensitization of bacteria coated onto Spongostan gelatin sponge (Example 4); conditions: 50 μg/ml methylene blue
Method: as §1, with “about 5×10^8” for “roughly 2×10^9”
as §2, with “5×10^8” for “2×10^7”, “Spongostan® gelatin sponge” for “Vicryl® mesh”, “minutes. (Spongostan® is a dry artificial sponge of fibrin prepared by clotting with thrombin, a foam or solution of fibrinogen. It is used in conjunction with thrombin as a hemostatic in surgery at sites where bleeding cannot be controlled by more common methods.)” for “minutes.”, “0.3” for “0.2”, “sponge” for “meshes”

[6] = 50 μg/ml methylene blue, 2 hours, no irradiation
[7] = 50 μg/ml, 0.3 kGy, Prolene, triplicate samples

## O=C1O[C@H]([C@@H](O)CO)C(O)=C1O [Ascorbic Acid, ascorbic acid]
[1]
  enhancement of the killing efficiency of the irradiation: greatest effect
[1]; Conc. 200 μg/ml
  Percent Survival 0.3 vs. 0 kGy: 0.28%
  Post-Treatment CFU Added: 8.55E+05 CFU
  cfu recovered, 0.3 kGy: 9 cfu
  cfu recovered, 0 kGy: 3270 cfu

## CN(C)c1ccc2nc3ccc(=[N+](C)C)cc-3sc2c1 [Methylene Blue, methylene blue]
[1]; Conc. 20 μg/ml
  Percent Survival 0.3 vs. 0 kGy: 0.13%
  Post-Treatment CFU Added: 7.80E+05 CFU
  cfu recovered, 0.3 kGy: 3 cfu
  cfu recovered, 0 kGy: 2250 cfu
[2]; 0 kGy, Vicryl mesh
  Avg CFU Rec: 7.40E+05 CFU
  Avg Log CFU: 5.72 Log CFU
[2]; 50 μg/ml methylene blue, 2 hours at room temperature, PBS, untreated 1.8×10^9
  cfu contained in sample after incubation: 1.6×10^9 cfu/ml
[2]; [6]
  effect of incubation on the bacterial number: did not significantly affect the bacterial number
[2]; 0.1 kGy, Vicryl mesh
  Avg Log CFU: 3.90 Log CFU
[2]; 0.2 kGy, Vicryl mesh
  Avg CFU Rec: 1.83E+03 CFU
  Avg Log CFU: 3.08 Log CFU
[2]; methylene blue, Vicryl mesh
  effect on bacterial recovery: small effect on bacterial recovery
[2]; methylene blue-treated, 0 kGy, Vicryl mesh, control 15%
  recovery from unirradiated sample: 4.6%
[2]; spotted onto Vicryl mesh
  Inoculum: 1.60E+07 CFU
[3]; 50 μg/ml methylene blue, 2 hours at room temperature, PBS, suspension used for Prolene and Vicryl meshes, untreated 4.8×10^8
  cfu contained in sample after incubation: 4.2×10^8 cfu/ml
[3]; [6]
  effect of incubation on the bacterial number: did not significantly affect the bacterial number
[3]; 50 μg/ml methylene blue, spotted onto Prolene mesh
  Inoculum: 4.20E+06 CFU
[3]; 50 μg/ml, 0.0 kGy, Prolene
  Avg CFU Recovered: 2.38E+03 CFU
  Log Red v 0 kGy: 0.0 Log
  Log Red v Control: −1.5 Log
  Log Red v Inoculum: −3.2 Log
[3]; 50 μg/ml, 0.3 kGy, Prolene
  Avg CFU Recovered: 0.00E+00 CFU
  Log Red v 0 kGy: −3.4 Log
  Log Red v Control: −1.2 Log
  Log Red v Inoculum: −6.6 Log
[3]; [7]
  Plated CFU: 0.00E+00 CFU
  Total CFU Recovered: 0.00E+00 CFU
[3]; Prolene mesh
  number of bacteria recovered, combination with irradiation compared to methylene blue or irradiation alone: significantly reduced the number of bacteria recovered
[4]; 50 μg/ml methylene blue, spotted onto Vicryl mesh
  Inoculum: 4.20E+06 CFU
[4]; 0.0 kGy
  Avg CFU Recovered: 1.79E+04 CFU
  Log Red v 0 kGy: 0.0 Log
  Log Red v Control: −1.2 Log
  Log Red v Inoculum: −2.4 Log
[4]; 0.3 kGy
  Avg CFU Recovered: 9.83E+01 CFU
  Log Red v 0 kGy: −2.3 Log
  Log Red v Control: −0.8 Log
  Log Red v Inoculum: −4.6 Log
[4]; Vicryl mesh
  number of bacteria recovered, combination with irradiation compared to methylene blue or irradiation alone: significantly reduced the number of bacteria recovered
[5]; 2 hours at room temperature, PBS, untreated 4.8×10^8
  cfu contained in sample after incubation: 4.2×10^8 cfu/ml
[5]; 2 hours, no irradiation
  effect of incubation on the bacterial number: did not significantly affect the bacterial number

## Cc1cc2nc3c(=O)[nH]c(=O)nc-3n(C[C@H](O)[C@H](O)[C@H](O)CO)c2cc1C [Riboflavin, riboflavin]
[1]; Conc. 200 μg/ml
  Percent Survival 0.3 vs. 0 kGy: 0.28%
  Post-Treatment CFU Added: 8.50E+05 CFU
  cfu recovered, 0.3 kGy: 3 cfu
  cfu recovered, 0 kGy: 1080 cfu
[1]; Conc. 1000 μg/ml
  Percent Survival 0.3 vs. 0 kGy: 0.83%
  Post-Treatment CFU Added: 8.00E+05 CFU
  cfu recovered, 0.3 kGy: 9 cfu
  cfu recovered, 0 kGy: 1080 cfu

## O=[N+]([O-])[O-].[Na+] [Sodium Nitrate, sodium nitrate]
[1]
  enhancement of the killing efficiency of the irradiation: greatest effect
[1]; Conc. 5000 μg/ml
  Percent Survival 0.3 vs. 0 kGy: 0.00%
  Post-Treatment CFU Added: 8.15E+05 CFU
  cfu recovered, 0.3 kGy: 0 cfu
  cfu recovered, 0 kGy: 420 cfu

## Cc1cc2nc3ccc(N(C)C)cc3[s+]c2cc1N.[Cl-] [Toluidine Blue, toluidine blue]
[1]
  enhancement of the killing efficiency of the irradiation: greatest effect
[1]; Conc. 20 μg/ml
  Percent Survival 0.3 vs. 0 kGy: 0.00%
  Post-Treatment CFU Added: 7.70E+05 CFU
  cfu recovered, 0.3 kGy: 0 cfu
  cfu recovered, 0 kGy: 87 cfu
[1]; Conc. 100 μg/ml
  Percent Survival 0.3 vs. 0 kGy: 0.00%
  Post-Treatment CFU Added: 4.65E+05 CFU
  cfu recovered, 0.3 kGy: 0 cfu
  cfu recovered, 0 kGy: 72 cfu
